By pIC50 is commonly meant −log10 of the IC50, conventionally taken in molar units.

In experiment [1] the target is T1, eIF1A-RPS10 interaction (Homo sapiens, UniProt P46783+P47813).
T1 construct: made in house; host or cells: E. coli BL21 (PRSFduet); unpurified lysate supernatant
Briefly: Split-Renilla luciferase eIF1A-RPS10 interaction screen, dose-response. As to conditions: Appendix Table S1; read-out: IC50 from the split RL screen. Type of experiment: biochemical. The procedure: While knockdown (KD) studies of eIF1A provided valuable insights into its role in mammalian cell translation (Sehrawat et al, [2019]), this approach presents several limitations. First, it fails to elucidate the functional significance of the opposing functions of eIF1A N- and C-terminal tails with respect to scanning and start codon fidelity. Second, the extended duration required for achieving efficient knockdown, 48–72 h, impairs our ability to differentiate between direct and indirect effects. To overcome these constraints, we set out to develop small-molecule inhibitors targeting eIF1A. Guided by structural and biochemical studies showing eIF1A binding to the small ribosomal subunit at the A-site and interacting directly with RPS10 through its N-terminal tail (Haimov et al, [2017]; Passmore et al, [2007]; Sehrawat et al, [2019]), our approach focused on disrupting the interaction between eIF1A and RPS10. […] The interaction between eIF1A and RPS10 brings the two parts together, leading to the reconstitution of the enzymatic activity (Haimov et al, [2017]). In this system, the spatial arrangement of the two RL parts is critical for the enzymatic activity, making it sensitive not only to direct interference with the interacting proteins but also to changes in the conformation of the fused proteins. In the eIF1A-RPS10 split-RL pair, the C-terminus of eIF1A is fused to N-RL (Fig. 1A), in order to maintain the NTT accessible to RPS10 binding. This pair was cloned and expressed in bacteria as recombinant proteins and used to screen a library of ~50,000 small molecules from diverse sources (Ashkenazi et al, [2017]).
eIF1A-ΔC-Renilla and RPS10-ΔN-Renilla were transformed into BL21 E. coli by heat shock transformation. A bacterial starter of 5 ml LB was incubated overnight at 37 °C and transferred into 1 L LB for incubation at 37 °C until OD ~ 0.5–0.7. Next, protein expression was induced with 0.5 mM IPTG, and bacterial cells were incubated overnight at 16 °C. Bacterial cell pellet was collected after centrifugation (3000 RPM, 15 min), resuspended in 20 ml TKE buffer (Tris 10 mM, KCl 100 mM, EDTA 0.1 mM), sonicated (bath sonicator, 24 cycles of 30 s) and centrifuged again (15000 RPM, 30 min). Supernatants were collected, analyzed for RL activity, and then used for high throughput drug screen (HTS) at the Weizmann G-INCPM HTS unit as described (Ashkenazi et al, [2017]). In addition to the standard controls of this protocol, the two parts of the split RL, without eIF1A or RPS10, were tested as controls. Selected compounds were purchased from Sigma-Aldrich and Enamine. Compound powders were resuspended in DMSO for a final concentration of 10 mM and stored at −20 °C.

The subject of experiment [2] is CUG/GUG vs AUG start codon luciferase reporters in HEK293T cells. Briefly: Near-cognate AUG starting codon fidelity reporter assay (GUG, CUG vs AUG). Type of experiment: cell-based. As to conditions: for GUG vs AUG data (%) / GUG vs AUG (%) Average: compound at 20uM; for GUG vs AUG data (%): individual repeat; for GUG vs AUG (%) Average: summary average of repeats, DMSO control average […]; for CUG vs AUG (%): CUG start codon reporter relative to AUG reporter (AUG = 100); for CUG vs AUG (%) / GUG vs AUG (%): compound at 20uM (summary head), single-experiment calculation; for GUG vs AUG (%): GUG start codon reporter relative to AUG reporter (AUG = 100). The procedure: We next considered the importance of eIF1A in controlling start codon fidelity in yeast and mammalian cells (Martin-Marcos et al, [2011]; Martin-Marcos et al, [2017]; Sehrawat et al, [2019]; She et al, [2023]) and tested how inhibition of eIF1A by 1Ais affects the initiation from near-cognate AUG. The effect of 1Ais was analyzed using firefly luciferase reporters bearing either AUG (control), CUG, or GUG as the exclusive translation initiation sites. Co-transfected GFP reporter served as an internal control for transfection efficiency.
For the near-cognate AUG Starting codon fidelity reporter assay, HEK293T cells were transfected with 100 ng of the previously described luciferase reporter constructs driven either by AUG, CUG, and GUG (Tang et al, [2017]) together with GFP expressing plasmid (20 ng) as normalizing control. Luciferase and GFP levels were determined as described above.
Appendix Figure S1: (A) HEK293T cells were transfected with Luciferase reporter genes with either CUG or AUG as their exclusive starting codon. 6 hours after transfection, cells were exposed to 1Ais, and the luminescence from all constructs was measured after overnight incubation. Bars represent the ratio between luminescence from the AUG starting codon and CUG after normalization with co-transfected GFP; Error bars represent SEM, * denotes p<0.05 (T-test comparing to DMSO control), n=≥4 independent biological replicates.

Experiment [3] deals with cap-proximal AUG GFP reporter in HEK293T cells. The experiment is classed as cell-based. As to conditions: GFP WB densitometry; 20 µM overnight; dmso 0.965946. An excerpt:
Translation from an AUG preceded by a very short 5'UTR (less than 30 nt) is usually inefficient and frequently bypassed, resulting in initiation from a downstream AUG, a phenomenon known as leaky scanning. […] To examine the impact of 1Ais on short 5'UTR initiation, we used a GFP reporter gene containing an AUG located 16 nt downstream from the 5' end followed by a second in-frame downstream AUG (Fig. 1F; Appendix Fig. S1B). Cells were transfected with this GFP reporter gene followed by exposure to DMSO (vehicle) and 1Ais. Initiations from upstream (US) or downstream (DS) AUGs were determined by western blot (WB) with anti-GFP antibodies and the ratio between the US and DS AUG was determined.
For the analysis of translation from very short 5'UTR and Leaky scanning, HEK293T cells were transfected with a GFP (20 ng/well) reporter gene driven by a cap-proximal and downstream AUGs (Elfakess et al, [2011]) together with a luciferase reporter gene (100 ng/well) as normalizing control and treated with 20 µM of 1Ais as described above. GFP levels were determined by Western blot (WB) (GFP antibody, Abcam #ab290) and quantified by densitometry (ImageJ) and normalized to the measured luciferase activity.
HEK293T cells were transfected with the GFP reporter gene schematically shown on the top. The first
AUG is […] from the 5’ end and the downstream AUG is in the same frame. Six hours after transfection, cells were treated with 1Ais. After overnight exposure to 1Ais, GFP expression was analyzed by WB using anti -GFP antibodies.
US/DS ratio was determined by densitometry and represents the long protein expression (upstream AUG, US) vs the […]
biological replicates. (C-D) Analysis of reporter genes mRNA levels after 1Ais treatment.

Experiment [4] concerns IRF7 5'UTR firefly luciferase reporter in HEK293T cells. Particulars: for LONG (summary - All), normalized to DMSO: Long reporter; for LONG (summary - All), normalized to DMSO / SHORT (summary - All), normalized to DMSO / average ( long vs short ratio): 20 µM; for LONG (summary - All), normalized to DMSO / SHORT (summary - All), normalized to DMSO: individual replicates, outliers excluded, DMSO = 1; for SHORT (summary - All), normalized to DMSO: Short reporter; for average ( long vs short ratio): summary - All.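 For all read-outs here: luciferase signal corrected by a co-transfected GFP reporter for transfection efficiency, read after overnight compound exposure, with Long and Short reporters differing in 5'UTR length.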

Experiment [5] deals with NSP1 (Severe acute respiratory syndrome coronavirus 2, UniProt P0DTD1).
Setting [6] is: raw data calculation of one experiment, GFP normalized, AUG set to 100, compound marked (20).

pIC50: −log10 of the molar value. Where “and” joins values, the source holds several entries; their conditions need not be identical. Equal entries are not always repeated.

T1 sequence (P47813 whole entry, one chain of several): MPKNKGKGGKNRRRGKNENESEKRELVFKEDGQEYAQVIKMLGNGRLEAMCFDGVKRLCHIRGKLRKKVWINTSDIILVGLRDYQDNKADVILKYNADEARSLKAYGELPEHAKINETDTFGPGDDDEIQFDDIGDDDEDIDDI

Consider `COc1ccc(CN(Cc2nn3c(=O)cc(C)nc3s2)C(C)Cc2cccs2)cc1` (centres unmarked) [1Ai-5751], for which the pIC50 in experiment [1] is 4.74. In experiment [2], the “GUG vs AUG data (%)” value is 1.65% and 1.59% and 3.31% and 1.26%; the “GUG vs AUG (%) Average” value is 1.95%. Besides, in experiment [3], the “US/DS ratio, average” value is 1.056. In experiment [4], the “LONG (summary - All), normalized to DMSO” value was 0.26 and 0.28 and 0.72 and 0.89 and 0.77 and 0.31; the “SHORT (summary - All), normalized to DMSO” value (from here on “SHORT … normalized to DMSO”) was 0.74 and 0.11 and 0.73 and 0.61 and 0.46 and 0.21; the “average ( long vs short ratio)” value is given as 1.128. For the same compound, in experiment [4] (compound at 20 µM, left data block (Long), source data of Fig 1C), the “Long 5'UTR reporter luciferase activity, normalized to DMSO (=1), single replicates” value was 0.2584 and 0.2757 and 0.7216 and 0.8893 and 0.7688 and 0.3143. For the same compound, in experiment [5], the “GFP reporter ratio nsp1/gfp, avg” value came out at 0.4183; the “GFP reporter ratio nsp1/gfp, rep 1” value was determined as 0.4426; the “GFP reporter ratio nsp1/gfp, rep 2” value is recorded as 0.3941; the “gfp signal, mean of duplicate wells” value is 2691 and 4145. Further, in experiment [5], the “nsp1 signal, mean of duplicate wells” value is 1060.5 and 1834.5; the “ratio (nsp1/gfp)” value was 0.394 and 0.443.
Regarding `O=S(=O)(Cc1cc(Cl)c2c(c1)OCCO2)Cc1nc(-c2ccccc2)no1` [1Ai-6476], the negative-log IC50 (pIC50) in experiment [1] was 4.82. In experiment [2], the “GUG vs AUG data (%)” value is 1.75% and 1.69% and 1.77% and 1.59%; the “GUG vs AUG (%) Average” value was 1.70%. In addition, in experiment [2] (setting [6]), the “calculation: CUG (AUG = 100)” value is given as 6.068 and the “calculation: GUG (AUG = 100)” value was 1.669. In experiment [3], the “US/DS ratio, average” value came out at 0.719. Besides, in experiment [4], the “LONG (summary - All), normalized to DMSO” value is 0.42 and 1.63 and 1.39 and 0.53; the “SHORT … normalized to DMSO” value is 0.36 and 1.11 and 1.08 and 0.95; the “average ( long vs short ratio)” value came to 1.134.
Regarding `O=C1c2ccccc2NC(c2cc(Cl)c3c(c2)OCO3)N1C1CC1` (centres unmarked) [1Ai-6586], the pIC50 in experiment [1] is 4.62. Also, in experiment [2], the “CUG vs AUG (%)” value is listed as 6.859%; the “GUG vs AUG (%)” value was 1.078%; the “GUG vs AUG data (%)” value is 1.26% and 0.96% and 1.21% and 1.81%; the “GUG vs AUG (%) Average” value is listed as 1.31%. Also, the “US/DS ratio, average” value in experiment [3] is 0.8389. In addition, in experiment [4], the “LONG (summary - All), normalized to DMSO” value was 0.0557 and 0.45 and 1.19 and 0.73; the “SHORT … normalized to DMSO” value was 0.06 and 0.81 and 0.69 and 1.23; the “average ( long vs short ratio)” value stood at 0.871.
Consider `COC(=O)C1=C(C)NC2=C(C(=O)CC(c3ccc(F)cc3)C2)C1c1ccc(N(C)C)cc1Cl` (centres unmarked) [1Ai-9162], for which the pIC50 in experiment [1] was 4.80. In addition, in experiment [2], the “CUG vs AUG (%)” value is recorded as 9.614%; the “GUG vs AUG (%)” value is given as 2.083%; the “GUG vs AUG data (%)” value was 2.05% and 2.20% and 2.48% and 2.61%; the “GUG vs AUG (%) Average” value is given as 2.33%. The “US/DS ratio, average” value in experiment [3] is 0.9825. For the same compound, in experiment [4], the “LONG (summary - All), normalized to DMSO” value was 0.54 and 0.53 and 0.27 and 0.64; the “SHORT … normalized to DMSO” value is 0.54 and 0.47 and 0.46; the “average ( long vs short ratio)” value was found to be 1.009.
